According to patent publication US9023789B2, “Amylin analogs and pharmaceutical compositions thereof” (Novo Nordisk A/S, priority 2012, dated 2015):
Numbered stars: 1 amine (or outer) side, 2 acyl side, 3 side chain; on linkers, the order of the positions; unused ones are H or OH. Bridge positions count the residues as written; N and C are the ends. Side chains are listed from the residue outwards. Peptide text beside a SMILES is read from it. * marks the point of attachment. C20 diacid = O=C(O)CCCCCCCCCCCCCCCCCCC(=O)*; γGlu = O=C(O)[C@H](CCC(=O)[*:2])N[*:1]; AEEA = NCCOCCOCC(=O)O

How the values were obtained:
[1] = ASSAY (III) ThT fibrillation assay for physical stability; format: physicochemical
Method in brief: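 Formulations with 1 μM ThT, pH adjusted as required, incubated at 37 °C with 960 rpm orbital shaking; fluorescence (ex 444/em 485 nm) read every 20 min. Fibrillation reported as mean ThT fluorescence ± SD of 4–8 replicates at time points; polypeptide concentration measured by reverse-phase HPLC before and after, post-centrifugation.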

[2] = target: T1, rat amylin receptor (rat calcitonin receptor + rat RAMP 3) (Rattus norvegicus, UniProt P32214+Q9JJ73); test: ASSAY (VI) binding to the rat amylin receptor; settings: for IC50: binding to rat amylin receptor, read-out: rAmylin-R bind IC50
T1 construct: expressed in transfected cells; host or cells: BHK tk'ts 13 (transient, FuGENE 6), membranes
T1 sequence (P32214 25-479 isoform P32214-2 limits assumed): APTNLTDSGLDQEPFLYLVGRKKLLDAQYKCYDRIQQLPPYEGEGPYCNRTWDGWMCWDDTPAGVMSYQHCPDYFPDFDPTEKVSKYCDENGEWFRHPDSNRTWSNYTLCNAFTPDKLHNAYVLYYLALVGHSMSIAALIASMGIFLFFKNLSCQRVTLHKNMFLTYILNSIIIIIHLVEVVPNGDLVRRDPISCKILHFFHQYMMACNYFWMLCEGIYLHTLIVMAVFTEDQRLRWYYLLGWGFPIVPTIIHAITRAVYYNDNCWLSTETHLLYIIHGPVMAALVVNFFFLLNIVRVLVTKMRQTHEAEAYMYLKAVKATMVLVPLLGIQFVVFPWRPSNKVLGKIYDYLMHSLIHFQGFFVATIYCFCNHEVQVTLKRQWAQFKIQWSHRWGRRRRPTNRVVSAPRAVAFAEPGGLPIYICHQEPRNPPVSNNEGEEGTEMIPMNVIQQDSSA
T1 sequence (Q9JJ73 23-147 partner): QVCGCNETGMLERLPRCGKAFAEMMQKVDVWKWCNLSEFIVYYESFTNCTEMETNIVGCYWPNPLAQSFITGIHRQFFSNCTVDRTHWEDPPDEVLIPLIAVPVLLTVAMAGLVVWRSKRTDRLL
Method in brief: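 This assay measured binding to the rat amylin receptor. BHK tk′ts 13 cells were transiently transfected with the rat calcitonin receptor using FuGENE® 6 (Roche), following the manufacturer's recommendations. About 48 hours after transfection, the cells were harvested and membranes were prepared from them for the binding determination.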

[3] = Table 7, rat binding selectivity, rCTR IC50 / rAmylin-R IC50
[4] = Table 7a (preferred compounds), rat binding selectivity, rCTR IC50 / rAmylin-R IC50
[5] = ratio of rCTR bind IC50 to rAmylin-R bind IC50

| SMILES | ThT pH 4.0 lag time (h) [1] [h] | IC50 ([2]; Table 7) [nM] | Ratio rCT/rAmylin binding [2, 3] | Ratio rCT/rAmylin binding [2, 4] | Ratio rCT/rAmylin binding [2, 5] |
| --- | --- | --- | --- | --- | --- |
| CC[C@H](C)[C@H](NC(=O)[C@H](C)NC(=O)CNC(=O)[C@H](Cc1ccccc1)NC(=O)[C@H](CC(N)=O)NC(=O)[C@@H]1CCCN1C(=O)[C@H](CO)NC(=O)[C@H](CO)NC(=O)[C@H](Cc1c[nH]cn1)NC(=O)[C@H](CCCNC(=N)N)NC(=O)[C@H](CC(C)C)NC(=O)[C@H](Cc1ccccc1)NC(=O)[C@H](CCC(=O)O)NC(=O)[C@H](C)NC(=O)[C@H](CC(C)C)NC(=O)[C@H](CCCNC(=N)N)NC(=O)[C@H](CCC(N)=O)NC(=O)[C@@H](NC(=O)[C@H](C)NC(=O)[C@@H]1CSSC[C@H](NC(=O)[C@H](CCCCN)NC(=O)CC[C@H](NC(=O)CCCCCCCCCCCCCCCCCCC(=O)O)C(=O)O)C(=O)N[C@@H](CC(N)=O)C(=O)N[C@@H]([C@@H](C)O)C(=O)N[C@@H](C)C(=O)N[C@@H]([C@@H](C)O)C(=O)N1)[C@@H](C)O)C(=O)N1CCC[C@H]1C(=O)N[C@@H](CO)C(=O)N[C@@H](CO)C(=O)N[C@H](C(=O)N1CCC[C@H]1C(=O)N[C@H](C(=O)NCC(=O)N[C@@H](CO)C(=O)N[C@@H](CC(N)=O)C(=O)N[C@H](C(=O)N[C@@H](Cc1ccc(O)cc1)C(N)=O)[C@@H](C)O)C(C)C)[C@@H](C)O [Example 31] ({C20 diacid-γGlu}-KCNTATCATQRLAEFLRHSSPNFGAIPSSTPVGSNTY-NH2; disulfide 2-7 (inferred)) | 45 | 0.619 | 42.8 | 42.8 | 42.8 |
| CC[C@H](C)[C@H](NC(=O)[C@H](C)NC(=O)CNC(=O)[C@H](Cc1ccccc1)NC(=O)[C@H](CC(N)=O)NC(=O)[C@@H]1CCCN1C(=O)[C@H](CO)NC(=O)[C@H](CO)NC(=O)[C@H](Cc1c[nH]cn1)NC(=O)[C@H](CCCNC(=N)N)NC(=O)[C@H](CC(C)C)NC(=O)[C@H](Cc1ccccc1)NC(=O)[C@H](CC(N)=O)NC(=O)[C@H](C)NC(=O)[C@H](CC(C)C)NC(=O)[C@H](CCCNC(=N)N)NC(=O)[C@H](CCC(N)=O)NC(=O)[C@@H](NC(=O)[C@H](C)NC(=O)[C@@H]1CSSC[C@H](NC(=O)[C@@H](N)CCCCNC(=O)COCCOCCNC(=O)COCCOCCNC(=O)CC[C@H](NC(=O)CCCCCCCCCCCCCCCCCCC(=O)O)C(=O)O)C(=O)N[C@@H](CC(N)=O)C(=O)N[C@@H]([C@@H](C)O)C(=O)N[C@@H](C)C(=O)N[C@@H]([C@@H](C)O)C(=O)N1)[C@@H](C)O)C(=O)N1CCC[C@H]1C(=O)N[C@@H](CO)C(=O)N[C@@H](CO)C(=O)N[C@H](C(=O)N1CCC[C@H]1C(=O)N[C@H](C(=O)NCC(=O)N[C@@H](CO)C(=O)N[C@@H](CC(N)=O)C(=O)N[C@H](C(=O)N[C@@H](Cc1ccc(O)cc1)C(N)=O)[C@@H](C)O)C(C)C)[C@@H](C)O [Example 96] | 12 | 0.529 | 117.5 | 117.5 | 117.5 |
| CC[C@H](C)[C@H](NC(=O)[C@H](C)NC(=O)CNC(=O)[C@H](Cc1ccccc1)NC(=O)[C@H](CC(N)=O)NC(=O)[C@@H]1CCCN1C(=O)[C@H](CO)NC(=O)[C@H](CO)NC(=O)[C@H](Cc1c[nH]cn1)NC(=O)[C@H](CCCNC(=N)N)NC(=O)[C@H](CC(C)C)NC(=O)[C@H](Cc1ccccc1)NC(=O)[C@H](CC(N)=O)NC(=O)[C@H](C)NC(=O)[C@H](CC(C)C)NC(=O)[C@H](CCCNC(=N)N)NC(=O)[C@H](CCC(N)=O)NC(=O)[C@@H](NC(=O)[C@H](C)NC(=O)[C@@H]1CSSC[C@H](NC(=O)[C@H](CCCNC(=N)N)NC(=O)CNC(=O)CC[C@H](NC(=O)CCCCCCCCCCCCCCCCCCC(=O)O)C(=O)O)C(=O)N[C@@H](CC(N)=O)C(=O)N[C@@H]([C@@H](C)O)C(=O)N[C@@H](C)C(=O)N[C@@H]([C@@H](C)O)C(=O)N1)[C@@H](C)O)C(=O)N1CCC[C@H]1C(=O)N[C@@H](CO)C(=O)N[C@@H](CO)C(=O)N[C@H](C(=O)N[C@@H](CC(N)=O)C(=O)N[C@H](C(=O)NCC(=O)N[C@@H](CO)C(=O)N[C@@H](CC(N)=O)C(=O)N[C@H](C(=O)N[C@@H](Cc1ccc(O)cc1)C(N)=O)[C@@H](C)O)C(C)C)[C@@H](C)O [Example 46] ({C20 diacid-γGlu}-GRCNTATCATQRLANFLRHSSPNFGAIPSSTNVGSNTY-NH2; disulfide 3-8 (inferred)) | 24 | 0.33 | 141.8 | 141.8 | 141.8 |
| CC[C@H](C)[C@H](NC(=O)[C@H](C)NC(=O)CNC(=O)[C@H](Cc1ccccc1)NC(=O)[C@H](CC(N)=O)NC(=O)[C@@H]1CCCN1C(=O)[C@H](CO)NC(=O)[C@H](CO)NC(=O)[C@H](Cc1c[nH]cn1)NC(=O)[C@H](CCCNC(=N)N)NC(=O)[C@H](CC(C)C)NC(=O)[C@H](Cc1ccccc1)NC(=O)[C@H](CC(N)=O)NC(=O)[C@H](C)NC(=O)[C@H](CC(C)C)NC(=O)[C@H](CCCNC(=N)N)NC(=O)[C@H](CCC(N)=O)NC(=O)[C@@H](NC(=O)[C@H](C)NC(=O)[C@@H]1CSSC[C@H](NC(=O)[C@@H](N)CCCCNC(=O)CC[C@H](NC(=O)CCCCCCCCCCCCCCCCCCC(=O)O)C(=O)O)C(=O)N[C@@H](CC(N)=O)C(=O)N[C@@H]([C@@H](C)O)C(=O)N[C@@H](C)C(=O)N[C@@H]([C@@H](C)O)C(=O)N1)[C@@H](C)O)C(=O)N1CCC[C@H]1C(=O)N[C@@H](CO)C(=O)N[C@@H](CO)C(=O)N[C@H](C(=O)N[C@@H](CC(N)=O)C(=O)N[C@H](C(=O)NCC(=O)N[C@@H](CO)C(=O)N[C@@H](CC(N)=O)C(=O)N[C@H](C(=O)N[C@@H](Cc1ccc(O)cc1)C(N)=O)[C@@H](C)O)C(C)C)[C@@H](C)O [Example 48] | 25 | 0.558 | 201.3 | 201.3 | 201.3 |
| CC[C@H](C)[C@H](NC(=O)[C@H](C)NC(=O)CNC(=O)[C@H](Cc1ccccc1)NC(=O)[C@H](CC(N)=O)NC(=O)[C@@H]1CCCN1C(=O)[C@H](CO)NC(=O)[C@H](CO)NC(=O)[C@H](Cc1c[nH]cn1)NC(=O)[C@H](CCCNC(=N)N)NC(=O)[C@H](CC(C)C)NC(=O)[C@H](Cc1ccccc1)NC(=O)[C@H](CC(N)=O)NC(=O)[C@H](C)NC(=O)[C@H](CC(C)C)NC(=O)[C@H](CCCNC(=N)N)NC(=O)[C@H](CCC(N)=O)NC(=O)[C@@H](NC(=O)[C@H](C)NC(=O)[C@@H]1CSSC[C@H](NC(=O)[C@@H](N)CCCCNC(=O)COCCOCCNC(=O)CC[C@H](NC(=O)CCCCCCCCCCCCCCCCCCC(=O)O)C(=O)O)C(=O)N[C@@H](CC(N)=O)C(=O)N[C@@H]([C@@H](C)O)C(=O)N[C@@H](C)C(=O)N[C@@H]([C@@H](C)O)C(=O)N1)[C@@H](C)O)C(=O)N1CCC[C@H]1C(=O)N[C@@H](CO)C(=O)N[C@@H](CO)C(=O)N[C@H](C(=O)N[C@@H](CC(N)=O)C(=O)N[C@H](C(=O)NCC(=O)N[C@@H](CCCNC(=N)N)C(=O)N[C@@H](CC(N)=O)C(=O)N[C@H](C(=O)N[C@@H](Cc1ccc(O)cc1)C(N)=O)[C@@H](C)O)C(C)C)[C@@H](C)O [Example 78] (H-K([AEEA-γGlu-C20 diacid])CNTATCATQRLANFLRHSSPNFGAIPSSTNVGRNTY-NH2; disulfide 2-7 (inferred)) | 13 | 1.3 | 69.9 | 69.9 | 69.9 |
